This passage reports viability results from patent US11110138B2 (priority 2012, dated 2021).

This series can be described thus: in vitro. The note with it: African green monkey.

What is called viability is a read-out of living cells in per cent, often relative to untreated cells. For `CS(=O)(=O)OCCCCOS(C)(=O)=O` [busulfan], the viability was roughly 82%.
